From paper PMC5218480 (PLoS ONE, 2017)

Test system: MV-4-11 cells
Test: Gene expression microarray analysis (Affymetrix PrimeView) and GSEA
Format: cell-based, human
Design: RFU PODN (11730768_x_at) / Fold change /veh PODN (11730768_x_at) / RFU LINC00158 (11744669_a_at) / Fold change /veh LINC00158 (11744669_a_at) / RFU DUSP10 (11751237_a_at) / Fold change /veh DUSP10 (11751237_a_at) / RFU ID3 (11757404_x_at) / Fold change /veh ID3 (11757404_x_at) / RFU PLEKHG5 (11737974_s_at) / Fold change /veh PLEKHG5 (11737974_s_at) / RFU LRRC4B (11730491_at) / Fold change /veh LRRC4B (11730491_at) / RFU GIMAP4 (11747438_a_at) / Fold change /veh GIMAP4 (11747438_a_at) / RFU KRT8 (11758183_x_at) / Fold change /veh KRT8 (11758183_x_at) / RFU CNN1 (11734310_a_at) / Fold change /veh CNN1 (11734310_a_at) / RFU VPS37D (11726825_at) / Fold change /veh VPS37D (11726825_at) / RFU C10orf10 (11716522_x_at) / Fold change /veh C10orf10 (11716522_x_at) / RFU KIR2DL2 /// KIR2DL4 /// KIR2DL5A /// KIR2DL5B /// KIR2DS1 /// KIR2DS2 /// KIR2DS3 /// KIR2DS4 /// KIR3DL3 /// KIR3DL3 /// KIR3DS1 (11738374_at) / Fold change /veh KIR2DL2 /// KIR2DL4 /// KIR2DL5A /// KIR2DL5B /// KIR2DS1 /// KIR2DS2 /// KIR2DS3 /// KIR2DS4 /// KIR3DL3 /// KIR3DL3 /// KIR3DS1 (11738374_at) / RFU C1QL1 (11718748_at) / Fold change /veh C1QL1 (11718748_at) / RFU TMPRSS4 (11747572_a_at) / Fold change /veh TMPRSS4 (11747572_a_at) / RFU HAMP (11756126_x_at) / Fold change /veh HAMP (11756126_x_at) / RFU RNFT2 (11725882_a_at) / Fold change /veh RNFT2 (11725882_a_at) / RFU NR4A2 (11747474_a_at) / Fold change /veh NR4A2 (11747474_a_at) / RFU ABCC12 (11746883_a_at) / Fold change /veh ABCC12 (11746883_a_at) / RFU TMEM136 (11760407_x_at) / Fold change /veh TMEM136 (11760407_x_at) / RFU CLDN22 /// WWC2 (11732394_at) / Fold change /veh CLDN22 /// WWC2 (11732394_at) / RFU HLA-DPB1 (11760878_x_at) / Fold change /veh HLA-DPB1 (11760878_x_at) / RFU SPINT1 (11716480_a_at) / Fold change /veh SPINT1 (11716480_a_at) / RFU GAP43 (11754022_s_at) / Fold change /veh GAP43 (11754022_s_at) / RFU A4GNT (11735810_at) / Fold change /veh A4GNT (11735810_at) / RFU PRB3 (11715151_x_at) / Fold change /veh PRB3 (11715151_x_at) / RFU TUBB4B (11761932_at) / Fold change /veh TUBB4B (11761932_at) / RFU CAPN14 (11732068_a_at) / Fold change /veh CAPN14 (11732068_a_at) / RFU TMCC2 (11721928_a_at) / Fold change /veh TMCC2 (11721928_a_at) / RFU IRGQ (11745062_a_at) / Fold change /veh IRGQ (11745062_a_at) / RFU FAM174B (11720279_a_at) / Fold change /veh FAM174B (11720279_a_at) / RFU TMPRSS4 (11748680_a_at) / Fold change /veh TMPRSS4 (11748680_a_at) / RFU FAM212B (11763350_a_at) / Fold change /veh FAM212B (11763350_a_at) / RFU PLEKHG5 (11743358_a_at) / Fold change /veh PLEKHG5 (11743358_a_at) / RFU ZSCAN30 (11745921_a_at) / Fold change /veh ZSCAN30 (11745921_a_at) / RFU CMKLR1 (11741424_a_at) / Fold change /veh CMKLR1 (11741424_a_at) / RFU LOC101060620 /// MAPK8IP1 (11723275_at) / Fold change /veh LOC101060620 /// MAPK8IP1 (11723275_at) / RFU SPTSSB (11747773_x_at) / Fold change /veh SPTSSB (11747773_x_at) / RFU PRSS12 (11739890_at) / Fold change /veh PRSS12 (11739890_at) / RFU BIN1 (11741810_x_at) / Fold change /veh BIN1 (11741810_x_at) / RFU WNT11 (11732464_a_at) / Fold change /veh WNT11 (11732464_a_at) / RFU C10orf10 (11716521_a_at) / Fold change /veh C10orf10 (11716521_a_at) / RFU C5orf56 (11738089_at) / Fold change /veh C5orf56 (11738089_at) / RFU CYB561 (11721691_x_at) / Fold change /veh CYB561 (11721691_x_at) / RFU ANKRD19P (11752326_a_at) / Fold change /veh ANKRD19P (11752326_a_at) / RFU OR2T12 /// OR2T33 /// OR2T8 (11738714_s_at) / Fold change /veh OR2T12 /// OR2T33 /// OR2T8 (11738714_s_at) / RFU VCAN (11748164_a_at) / Fold change /veh VCAN (11748164_a_at) / RFU JSRP1 (11732532_at) / Fold change /veh JSRP1 (11732532_at) / RFU KRTAP10-11 (11738290_x_at) / Fold change /veh KRTAP10-11 (11738290_x_at) / RFU MYO3A (11730013_a_at) / Fold change /veh MYO3A (11730013_a_at) / RFU EBF3 (11725865_a_at) / Fold change /veh EBF3 (11725865_a_at) / RFU CAMK2N1 (11719241_x_at) / Fold change /veh CAMK2N1 (11719241_x_at) / RFU C5orf56 (11738088_a_at) / Fold change /veh C5orf56 (11738088_a_at) / RFU OLFML3 (11715873_a_at) / Fold change /veh OLFML3 (11715873_a_at) / RFU LOC100653217 /// NTM (11731650_a_at) / Fold change /veh LOC100653217 /// NTM (11731650_a_at) / RFU MAPK11 (11762145_a_at) / Fold change /veh MAPK11 (11762145_a_at) / RFU FIZ1 (11724087_x_at) / Fold change /veh FIZ1 (11724087_x_at) / RFU OASL (11726364_x_at) / Fold change /veh OASL (11726364_x_at) / RFU SOX15 (11748057_x_at) / Fold change /veh SOX15 (11748057_x_at) / RFU CD79A (11719716_a_at) / Fold change /veh CD79A (11719716_a_at) / RFU HIST1H1D (11736915_at) / Fold change /veh HIST1H1D (11736915_at) / RFU CASKIN2 (11723855_a_at) / Fold change /veh CASKIN2 (11723855_a_at) / RFU LOC730098 (11760151_x_at) / Fold change /veh LOC730098 (11760151_x_at) / RFU OR4N2 (11742367_at) / Fold change /veh OR4N2 (11742367_at) / RFU PRRT2 (11749266_a_at) / Fold change /veh PRRT2 (11749266_a_at) / RFU SNX32 (11753110_a_at) / Fold change /veh SNX32 (11753110_a_at) / RFU CDHR5 (11726645_a_at) / Fold change /veh CDHR5 (11726645_a_at) / RFU RCAN1 (11760418_a_at) / Fold change /veh RCAN1 (11760418_a_at) / RFU FAM167A (11723789_a_at) / Fold change /veh FAM167A (11723789_a_at) / RFU FAM26E (11764081_at) / Fold change /veh FAM26E (11764081_at) / RFU ISYNA1 (11749810_s_at) / Fold change /veh ISYNA1 (11749810_s_at) / RFU ACY1 (11761880_at) / Fold change /veh ACY1 (11761880_at) / RFU 11764098_at / Fold change /veh 11764098_at / RFU SAMD14 (11745864_x_at) / Fold change /veh SAMD14 (11745864_x_at) / RFU NPB (11741838_a_at) / Fold change /veh NPB (11741838_a_at) / RFU TMPRSS6 (11731388_a_at) / Fold change /veh TMPRSS6 (11731388_a_at) / RFU KRTAP10-2 (11738614_at) / Fold change /veh KRTAP10-2 (11738614_at) / RFU ARHGAP8 /// PRR5-ARHGAP8 (11727945_x_at) / Fold change /veh ARHGAP8 /// PRR5-ARHGAP8 (11727945_x_at) / RFU KRTAP5-7 /// NADSYN1 (11734609_at) / Fold change /veh KRTAP5-7 /// NADSYN1 (11734609_at) / RFU RASL12 (11751679_a_at) / Fold change /veh RASL12 (11751679_a_at) / RFU CDKN2B (11736163_a_at) / Fold change /veh CDKN2B (11736163_a_at) / RFU PRF1 (11729649_at) / Fold change /veh PRF1 (11729649_at) / RFU, ZNF638 /// ZNF638-IT1 / Fold change vs veh, ZNF638 /// ZNF638-IT1 / RFU, PANK3 / Fold change vs veh, PANK3 / RFU, SH3YL1 / Fold change vs veh, SH3YL1 / RFU, ZEB2 / Fold change vs veh, ZEB2 / RFU, NRIP1 / Fold change vs veh, NRIP1 / RFU, PTTG1IP / Fold change vs veh, PTTG1IP / RFU, CAPN2 / Fold change vs veh, CAPN2 / RFU, MED14 / Fold change vs veh, MED14 / RFU, SNORA58 / Fold change vs veh, SNORA58 / RFU, C1orf63 / Fold change vs veh, C1orf63 / RFU, LRRFIP1 / Fold change vs veh, LRRFIP1 / RFU, NDUFAF7 / Fold change vs veh, NDUFAF7 / RFU, SLC12A2 / Fold change vs veh, SLC12A2 / RFU, IBTK / Fold change vs veh, IBTK / RFU, ESF1 / Fold change vs veh, ESF1 / Fold change vs veh, TMEM50B / RFU, TAOK1 / Fold change vs veh, TAOK1 / RFU, ACBD3 / Fold change vs veh, ACBD3 / RFU, TMA16 / Fold change vs veh, TMA16 / RFU, RWDD3 / Fold change vs veh, RWDD3 / RFU, BCAT1 / Fold change vs veh, BCAT1 / RFU, EDEM3 / Fold change vs veh, EDEM3 / RFU, TMEM33 / Fold change vs veh, TMEM33 / RFU, WDR75 / Fold change vs veh, WDR75 / RFU, AHCTF1 / Fold change vs veh, AHCTF1 / RFU, TFRC / Fold change vs veh, TFRC / RFU, ZDHHC17 / Fold change vs veh, ZDHHC17 / RFU, NOM1 / Fold change vs veh, NOM1 / RFU, ARL8B / Fold change vs veh, ARL8B / RFU, ZBTB11 / Fold change vs veh, ZBTB11 / RFU, TAMM41 / Fold change vs veh, TAMM41 / RFU, KIAA1704 /// LOC100996395 / Fold change vs veh, KIAA1704 /// LOC100996395 / RFU, ING1 / Fold change vs veh, ING1 / RFU, TRMT61B / Fold change vs veh, TRMT61B / RFU, FUBP3 / Fold change vs veh, FUBP3 / RFU, TP53 / Fold change vs veh, TP53 / RFU, TNKS2 / Fold change vs veh, TNKS2 / RFU, ZFP14 / Fold change vs veh, ZFP14 / RFU, ACTR2 / Fold change vs veh, ACTR2 / RFU, PPP3R1 / Fold change vs veh, PPP3R1 / RFU, PIK3R1 / Fold change vs veh, PIK3R1 / RFU, HNRNPA1 / Fold change vs veh, HNRNPA1 / RFU, RNF170 / Fold change vs veh, RNF170 / RFU, ZNF28 / Fold change vs veh, ZNF28 / RFU, RNGTT / Fold change vs veh, RNGTT / RFU, OGT / Fold change vs veh, OGT / RFU, BRD1 / Fold change vs veh, BRD1 / RFU, MARS / Fold change vs veh, MARS / RFU, ZNF655 / Fold change vs veh, ZNF655 / RFU, FAHD1 / Fold change vs veh, FAHD1 / RFU, BDP1 / Fold change vs veh, BDP1 / RFU, LRRCC1 / Fold change vs veh, LRRCC1 / RFU, ARID1A / Fold change vs veh, ARID1A / RFU, ZNF146 / Fold change vs veh, ZNF146 / RFU, ZNF330 / Fold change vs veh, ZNF330 / RFU, GPN3 / Fold change vs veh, GPN3 / RFU, C9orf123 / Fold change vs veh, C9orf123 / RFU, N4BP2L2 / Fold change vs veh, N4BP2L2 / RFU, ARFIP1 / Fold change vs veh, ARFIP1 / RFU, FAM179B / Fold change vs veh, FAM179B / RFU, BCL10 / Fold change vs veh, BCL10 / RFU, UHRF1BP1L / Fold change vs veh, UHRF1BP1L / RFU, BET1 / Fold change vs veh, BET1 / RFU, CNOT2 / Fold change vs veh, CNOT2 / RFU, ZNF268 / Fold change vs veh, ZNF268 / Fold change vs veh, ZNF507 / RFU, DGCR2 / Fold change vs veh, DGCR2 / RFU, WDSUB1 / Fold change vs veh, WDSUB1 / Fold change vs veh, HSP90B1 /// MIR3652 / RFU, ADSS / Fold change vs veh, ADSS / RFU, GK / Fold change vs veh, GK / RFU, ZNF148 / Fold change vs veh, ZNF148 / RFU, TAF9 / Fold change vs veh, TAF9 / RFU, SLC1A5 / Fold change vs veh, SLC1A5 / RFU, SLMO2 / Fold change vs veh, SLMO2 / RFU, ABCC4 / Fold change vs veh, ABCC4 / RFU, LOC101060439 /// RAP1B / Fold change vs veh, LOC101060439 /// RAP1B / RFU, RFX7 / Fold change vs veh, RFX7 / RFU, GTPBP10 / Fold change vs veh, GTPBP10 / RFU, CNEP1R1 / Fold change vs veh, CNEP1R1 / RFU, BIVM-ERCC5 /// ERCC5 / Fold change vs veh, BIVM-ERCC5 /// ERCC5 / RFU, ILF3 / Fold change vs veh, ILF3 / RFU 11762660_at / Fold change /veh 11762660_at / RFU VCAN (11757783_s_at) / Fold change /veh VCAN (11757783_s_at) / RFU DDX43 (11728927_at) / Fold change /veh DDX43 (11728927_at) / RFU KRT8 (11758188_x_at) / Fold change /veh KRT8 (11758188_x_at) / RFU NKD1 (11759106_at) / Fold change /veh NKD1 (11759106_at) / RFU SRD5A1 (11742802_a_at) / Fold change /veh SRD5A1 (11742802_a_at) / RFU TPSAB1 /// TPSB2 (11721975_s_at) / Fold change /veh TPSAB1 /// TPSB2 (11721975_s_at) / RFU GSTM3 (11746129_a_at) / Fold change /veh GSTM3 (11746129_a_at) / RFU IL23R (11737362_x_at) / Fold change /veh IL23R (11737362_x_at) / RFU TMEM51 (11727254_a_at) / Fold change /veh TMEM51 (11727254_a_at) / RFU PIWIL2 (11732686_x_at) / Fold change /veh PIWIL2 (11732686_x_at) / RFU ORM1 (11744905_x_at) / Fold change /veh ORM1 (11744905_x_at) / RFU CCDC152 (11743942_at) / Fold change /veh CCDC152 (11743942_at) / RFU ECM1 (11717891_a_at) / Fold change /veh ECM1 (11717891_a_at) / RFU IL23R (11748794_a_at) / Fold change /veh IL23R (11748794_a_at) / RFU TNFAIP8L3 (11732012_x_at) / Fold change /veh TNFAIP8L3 (11732012_x_at) / RFU MBOAT4 (11741988_at) / Fold change /veh MBOAT4 (11741988_at) / RFU 11764193_at / Fold change /veh 11764193_at / RFU TMEM53 (11763286_at) / Fold change /veh TMEM53 (11763286_at) / RFU MAGEB2 (11727129_at) / Fold change /veh MAGEB2 (11727129_at) / RFU TMEM200A (11744735_a_at) / Fold change /veh TMEM200A (11744735_a_at) / RFU CCDC152 (11751479_a_at) / Fold change /veh CCDC152 (11751479_a_at) / RFU FAM211A (11726209_a_at) / Fold change /veh FAM211A (11726209_a_at) / RFU RGS16 (11746705_a_at) / Fold change /veh RGS16 (11746705_a_at) / RFU VCAN (11755009_s_at) / Fold change /veh VCAN (11755009_s_at) / RFU RHOB (11743442_s_at) / Fold change /veh RHOB (11743442_s_at) / RFU RGS16 (11720943_a_at) / Fold change /veh RGS16 (11720943_a_at) / RFU RGS16 (11720944_at) / Fold change /veh RGS16 (11720944_at) / RFU, VPS4B / Fold change vs veh, VPS4B / RFU, CREB1 / Fold change vs veh, CREB1 / RFU, DNAJC13 / Fold change vs veh, DNAJC13 / RFU, GNAQ / Fold change vs veh, GNAQ / RFU, CDK5R1 / Fold change vs veh, CDK5R1 / RFU, ZRANB3 / Fold change vs veh, ZRANB3 / RFU, CUL4A / Fold change vs veh, CUL4A / RFU, CCNY / Fold change vs veh, CCNY / RFU, UFL1 / Fold change vs veh, UFL1 / RFU, COG3 / Fold change vs veh, COG3 / RFU, DIAPH2 / Fold change vs veh, DIAPH2 / RFU, SKA2 / Fold change vs veh, SKA2 / RFU, AFF3 / Fold change vs veh, AFF3 / RFU, LMF1 / Fold change vs veh, LMF1 / RFU, IPO11 / Fold change vs veh, IPO11 / RFU, DFFB / Fold change vs veh, DFFB / RFU, FOXP1 / Fold change vs veh, FOXP1 / RFU, CARD8 / Fold change vs veh, CARD8 / RFU, STRN3 / Fold change vs veh, STRN3 / RFU, ADK / Fold change vs veh, ADK / RFU, RASSF2 / Fold change vs veh, RASSF2 / RFU, WIPF1 / Fold change vs veh, WIPF1 / RFU, LARP1B / Fold change vs veh, LARP1B / RFU, RASA1 / Fold change vs veh, RASA1 / RFU, RB1 / Fold change vs veh, RB1 / RFU, PPFIA1 / Fold change vs veh, PPFIA1 / RFU, MAT2A / Fold change vs veh, MAT2A / RFU, CCT5 / Fold change vs veh, CCT5 / RFU, WDR92 / Fold change vs veh, WDR92 / RFU, CUX1 / Fold change vs veh, CUX1 / RFU, TTC7A / Fold change vs veh, TTC7A / RFU, TMEM135 / Fold change vs veh, TMEM135 / RFU, DEPTOR / Fold change vs veh, DEPTOR / RFU, CPM / Fold change vs veh, CPM / RFU, DNAJB6 / Fold change vs veh, DNAJB6 / RFU, CACNA2D3 / Fold change vs veh, CACNA2D3 / RFU, DTX4 / Fold change vs veh, DTX4 / RFU, TFCP2 / Fold change vs veh, TFCP2 / RFU, GMCL1 /// GMCL1P1 / Fold change vs veh, GMCL1 /// GMCL1P1 / RFU, AEBP2 / Fold change vs veh, AEBP2 / RFU, SNHG1 /// SNORD22 /// SNORD25 /// SNORD26 /// SNORD27 /// SNORD28 /// SNORD29 /// SNORD31 / Fold change vs veh, SNHG1 /// SNORD22 /// SNORD25 /// SNORD26 /// SNORD27 /// SNORD28 /// SNORD29 /// SNORD31 / Fold change (Aza/veh), C12orf56 (ProbeSet 11735607_a_at) / Fold change (ACY-1035/veh), C12orf56 (ProbeSet 11735607_a_at) / Fold change (Aza/veh), FGFR1OP (ProbeSet 11751329_s_at) / Fold change (ACY-1035/veh), FGFR1OP (ProbeSet 11751329_s_at) / Fold change (Aza/veh), VPS36 (ProbeSet 11739960_a_at) / Fold change (ACY-1035/veh), VPS36 (ProbeSet 11739960_a_at) / RFU SYPL1 (11715823_x_at) / Fold change /veh SYPL1 (11715823_x_at) / RFU IGFBP7 (11715501_s_at) / Fold change /veh IGFBP7 (11715501_s_at) / RFU REEP3 (11722064_at) / Fold change /veh REEP3 (11722064_at) / RFU IGLL1 (11728026_x_at) / Fold change /veh IGLL1 (11728026_x_at): dose or concentration left out as unconfirmed
Details: MV-4-11 cells, 48 hours

Nc1ccc(-c2cccs2)cc1NC(=O)c1ccc2c(c1)cc(C1CC1)n2CCN1CCOCC1 [ACY-1035]
Fold change /veh CAMK2N1 (11719241_x_at): 0.84
